From patent publication US9034352B2, “Microbicide combinations containing silver” (Rohm and Haas Company, priority 2006, dated 2015)
Values joined by “and” are separate entries in the source; they are usually repeats but may differ in a detail not shown here. Equal entries are not always repeated. Where two headings read alike, the source gives them in different places.

Assays:
Assay in all cases: Synergy test, high resolution MIC microtiter plate assay
Type in all cases: cell-based
[1] = system: Pseudomonas aeruginosa (P. aeruginosa—ATCC #15442); conditions: for MIC of component acting alone (end point): P. aeruginosa, Ag-polymer on active silver ion basis
Text: (§1) One measure of synergism is the industrially accepted method described by Kull, F. C.; Eisman, P. C.; Sylwestrowicz, H. D. and Mayer, R. L., in Applied Microbiology 9:538-541 (1961), using the ratio determined by the formula: Ca/CA+Cb/CB=Synergy Index (“SI”) wherein:
(§2) CA=concentration of compound A (first component) in ppm, acting alone, which produced an end point (MIC of Compound A).
(§3) Ca=concentration of compound A in ppm, in the mixture, which produced an end point.
(§4) CB=concentration of compound B (second component) in ppm, acting alone, which produced an end point (MIC of Compound B).
(§5) Cb=concentration of compound B in ppm, in the mixture, which produced an end point.
(§6) When the sum of Ca/CA and Cb/CB is greater than one, antagonism is indicated. […] The lower the SI, the greater the synergy shown by that particular mixture. The minimum inhibitory concentration (MIC) of an antimicrobial compound is the lowest concentration tested under a specific set of conditions that prevents the growth of added microorganisms.
(§7) Synergy tests were conducted using standard microtiter plate assays with media designed for optimal growth of the test microorganism. Soybean Casein Digest Broth (Tryptic Soy Broth, TSB medium) or minimal salt medium supplemented with 0.2% glucose and 0.1% yeast extract (M9GY medium) was used for testing bacteria; Potato Dextrose Broth (PDB medium) was used for testing yeast and mold. In this method, a wide range of combinations of microbicides was tested by conducting high resolution MIC assays in the presence of various concentrations of the biocides. High resolution MICs were determined by adding varying amounts of microbicide to one column of a microtitre plate and doing subsequent ten-fold dilutions using an automated liquid handling system.
(§8) The bacteria were used at a concentration of about 1-6×10^6 bacteria per mL and the yeast and mold at 1-5×10^5 fungi per mL. These microorganisms are representative of natural contaminants in many consumer and industrial applications. […] (yeast and mold) or 30° C. (bacteria).

[2] = system: Aspergillus niger (A. niger—ATCC 16404); conditions: for MIC of component acting alone (end point): A. niger, Ag-polymer on active silver ion basis; for MIC: Aspergillus niger, read-out: MIC of component acting alone (end point)
Text: as §1, §2, §3, §4, §5, §6, §7, §8

[3] = system: Staphylococcus aureus (S. aureus—ATCC #6538); conditions: for MIC of component acting alone (end point): S. aureus, Ag-polymer on active silver ion basis; for MIC: Staphylococcus aureus, read-out: MIC of component acting alone (end point)
Text: as §1, §2, §3, §4, §5, §6, §7, §8

[4] = system: Candida albicans (C. albicans—ATCC 10231); conditions: for Ca (Component A in combination): Hydrogen Peroxide combined with Ag-polymer formulation; for MIC of component acting alone (end point): C. albicans, Ag-polymer on active silver ion basis; for MIC: Candida albicans, read-out: MIC of component acting alone (end point)
Text: as §1, §2, §3, §4, §5, §6, §7
(§9) […]. The bacteria were used at a concentration of about 1-6×10^6 bacteria per mL and the yeast and mold at 1-5×10^5 fungi per mL. These microorganisms are representative of natural contaminants in many consumer and industrial applications. […] (yeast and mold) or 30° C. (bacteria).
(§10) The end point values in the following examples for the silver-polymer complex are reported on an active silver ion basis.

[5] = system: Esherichia coli (E. coli—ATCC #8739); conditions: Ag-polymer on active silver ion basis
Text: as §1, §2, §3, §4, §5, §6, §7, §9, §10

[6] = system: Samonella choleraesuis (S. choleraesuis—ATCC #10708); conditions: S. choleraesuis, contact time 48 hour; Ag-polymer on active silver ion basis
Text: as §1, §2, §3, §4, §5, §6, §7
The synergy of the combinations of the present invention was determined against four bacteria, gram positive Staphylococcus aureus (S. aureus—ATCC #6538) and gram negative Pseudomonas aeruginosa (P. aeruginosa—ATCC #15442), Samonella choleraesuis (S. choleraesuis—ATCC #10708) and Esherichia coli (E. coli—ATCC #8739), a yeast, Candida albicans (C. albicans—ATCC 10231), and a mold, Aspergillus niger (A. niger—ATCC 16404). The bacteria were used at a concentration of about 1-6×10^6 bacteria per mL and the yeast and mold at 1-5×10^5 fungi per mL. These microorganisms are representative of natural contaminants in many consumer and industrial applications. […] (yeast and mold) or 30° C. (bacteria).
as §10

[7] = Hydrogen Peroxide combined with Ag-polymer formulation, contact time 24 hour
[8] = Table 9, Hydrogen Peroxide alone, contact time 24 hour
[9] = Table 9, Hydrogen Peroxide alone, contact time 48 hour
[10] = Table 11, Glutaraldehyde alone, contact time 24 hour
[11] = Table 11, Glutaraldehyde alone, contact time 48 hour
[12] = 5-Chloro-2-(2,4-dichlorophenoxy)phenol combined with Ag-polymer formulation, contact time 48 hour
[13] = Table 12, 5-Chloro-2-(2,4-dichlorophenoxy)phenol alone, contact time 24 hour
[14] = Table 12, 5-Chloro-2-(2,4-dichlorophenoxy)phenol alone, contact time 48 hour
[15] = Sodium hypochlorite (as Free Cl2) combined with Ag-polymer formulation, contact time 48 hour
[16] = Table 10, Sodium hypochlorite alone, as Free Cl2, contact time 24 hour
[17] = Table 10, Sodium hypochlorite alone, as Free Cl2, contact time 48 hour
[18] = Table 13, 3-Iodo-2-propynyl butylcarbamate alone, contact time 24 hour
[19] = Table 13, 3-Iodo-2-propynyl butylcarbamate alone, contact time 48 hour

`OO` [Hydrogen Peroxide] was tested, and the “Ca (Component A in combination)” value [1, 7] was 255, the “Ca (Component A in combination)” value ([1]; Hydrogen Peroxide combined with Ag-polymer formulation, contact time 48 hour) was 390 and 315 and 255 and the “Ca (Component A alone)” value [1, 8] was 315. For the same molecule, the “Ca (Component A alone)” value [1, 9] was 525, the “Ca (Component A in combination)” value ([2]; Hydrogen Peroxide combined with Ag-polymer formulation, contact time 7 days) was 1300 and 1050 and the “Ca (Component A alone)” value ([2]; Table 9, Hydrogen Peroxide alone, contact time 3 days) was 1300. The “Ca (Component A alone)” value ([2]; Table 9, Hydrogen Peroxide alone, contact time 7 days) was 1750, the “Ca (Component A in combination)” value [3, 7] was 53 and 39 and the “Ca (Component A alone)” value [3, 8] was 66. For the same molecule, the “Ca (Component A alone)” value [3, 9] was 180, the “Ca (Component A in combination)” value ([4]; contact time 24 hour) was 105 and 85 and the “Ca (Component A in combination)” value ([4]; contact time 48 hour) was 85. The “Ca (Component A alone)” value [4, 8] was 130 and the “Ca (Component A alone)” value [4, 9] was 130.
With `CC(C)(C)CC(C)(C)c1ccc(OCCOCC[N+](C)(C)Cc2ccccc2)cc1.[Cl-]` [diisobutylphenoxyethoxyethyl dimethylbenzylammonium chloride, reference compound] the “MIC of component acting alone (end point)” value (from here on “MIC … (end point)”) ([2]; contact time 7 days) was 40.3 ppm, the “MIC … (end point)” value ([3]; contact time 24 hour) was 28.8 ppm and the “MIC … (end point)” value ([3]; contact time 48 hour) was 40.3 ppm. The “MIC … (end point)” value ([4]; contact time 48 hour) was 28.8 ppm and the “MIC … (end point)” value ([5]; contact time 24 hour) was 19.4 ppm.
For `Cn1sccc1=O` [MIT, 2-methyl-4-isothiazolin-3-one, reference compound], the MIC ([1]; Pseudomonas aeruginosa, ATCC15442, 48 h, read-out: MIC of component acting alone (end point)) was 24.7 µg/mL, the MIC ([2]; ATCC16404, 72 h) was 493 µg/mL and the MIC ([2]; ATCC16404, 168 h) was 603 µg/mL. For the same molecule, the MIC ([3]; ATCC6538, 24 h) was 34.5 µg/mL, the MIC ([3]; ATCC6538, 48 h) was 34.5 µg/mL and the MIC ([4]; ATCC10231, 24 h) was 288 µg/mL. For the same molecule, the MIC ([4]; ATCC10231, 48 h) was 403 µg/mL.
In the case of `O=CCCCC=O` [Glutaraldehyde], the “Ca (Component A in combination)” value ([1]; Glutaraldehyde combined with Ag-polymer formulation, contact time 24 hour) is reported as 13, the “Ca (Component A in combination)” value ([1]; Glutaraldehyde combined with Ag-polymer formulation, contact time 48 hour) is reported as 16 and the “Ca (Component A alone)” value [1, 10] is reported as 16. The “Ca (Component A alone)” value [1, 11] was 20, the “Ca (Component A in combination)” value ([2]; Glutaraldehyde combined with Ag-polymer formulation, contact time 3 days) was 425 and the “Ca (Component A in combination)” value ([2]; Glutaraldehyde combined with Ag-polymer formulation, contact time 7 days) was 525. The “Ca (Component A alone)” value ([2]; Table 11, Glutaraldehyde alone, contact time 3 days) was 525, the “Ca (Component A alone)” value ([2]; Table 11, Glutaraldehyde alone, contact time 7 days) was 650 and the “Ca (Component A alone)” value [3, 10] was 13. The “Ca (Component A alone)” value [3, 11] was 20, the “Ca (Component A alone)” value [4, 10] was 88 and the “Ca (Component A alone)” value [4, 11] was 88.
With “C9-C15 alkyltolylmethyltrimethylammonium chloride [reference compound]” the “MIC … (end point)” value ([1]; contact time 24 hour) was 19.4 ppm, the “MIC … (end point)” value ([1]; contact time 48 hour) was 19.4 ppm and the “MIC … (end point)” value ([2]; contact time 7 days) was 493 ppm. The “MIC … (end point)” value ([3]; contact time 24 hour) was 69 ppm, the “MIC … (end point)” value ([4]; contact time 24 hour) was 98 ppm and the “MIC … (end point)” value ([5]; contact time 24 hour) was 6 ppm. For the same molecule, the “MIC … (end point)” value ([5]; contact time 48 hour) was 6 ppm.
For “C12-C16 alkyl dimethylbenzylammonium chloride [reference compound]”, the “MIC … (end point)” value ([2]; contact time 3 days) was 194 ppm, the “MIC … (end point)” value ([2]; contact time 7 days) was 603 ppm and the “MIC … (end point)” value ([3]; contact time 24 hour) was 19.4 ppm. For the same molecule, the “MIC … (end point)” value ([3]; contact time 48 hour) was 19.4 ppm, the “MIC … (end point)” value ([4]; contact time 24 hour) was 40.3 ppm and the “MIC … (end point)” value ([4]; contact time 48 hour) was 98 ppm. For the same molecule, the “MIC … (end point)” value ([5]; contact time 48 hour) was 4.9 ppm and the “MIC … (end point)” value [6] was 6.9 ppm.
In the case of `Oc1cc(Cl)ccc1Oc1ccc(Cl)cc1Cl` [5-Chloro-2-(2,4-dichlorophenoxy)phenol], the “Ca (Component A in combination)” value ([1]; 5-Chloro-2-(2,4-dichlorophenoxy)phenol combined with Ag-polymer formulation, contact time 24 hour) is reported as 20, the “Ca (Component A in combination)” value [1, 12] is reported as 30 and 20 and the “Ca (Component A alone)” value [1, 13] is reported as 30. For the same molecule, the “Ca (Component A alone)” value [1, 14] was 43, the “Ca (Component A in combination)” value ([2]; 5-Chloro-2-(2,4-dichlorophenoxy)phenol combined with Ag-polymer formulation, contact time 3 days) was 7 and the “Ca (Component A alone)” value ([2]; Table 12, 5-Chloro-2-(2,4-dichlorophenoxy)phenol alone, contact time 3 days) was 9. The “Ca (Component A alone)” value ([2]; Table 12, 5-Chloro-2-(2,4-dichlorophenoxy)phenol alone, contact time 7 days) was 30, the “Ca (Component A in combination)” value [3, 12] was 9 and 7 and the “Ca (Component A alone)” value [3, 13] was 9. For the same molecule, the “Ca (Component A alone)” value [3, 14] was 11.
With `OCl` [Sodium hypochlorite] the “Ca (Component A in combination)” value ([1]; Sodium hypochlorite (as Free Cl2) combined with Ag-polymer formulation, contact time 24 hour) was 0.5, the “Ca (Component A in combination)” value [1, 15] was 0.7 and the “Ca (Component A alone)” value [1, 16] was 0.7. The “Ca (Component A alone)” value [1, 17] was 0.9, the “Ca (Component A alone)” value ([2]; Table 10, Sodium hypochlorite alone, as Free Cl2, contact time 3 days) was 26 and the “Ca (Component A alone)” value ([2]; Table 10, Sodium hypochlorite alone, as Free Cl2, contact time 7 days) was 35. For the same molecule, the “Ca (Component A in combination)” value [3, 15] was 0.5, the “Ca (Component A alone)” value [3, 16] was 0.4 and the “Ca (Component A alone)” value [3, 17] was 0.7. For the same molecule, the “Ca (Component A alone)” value [4, 16] was 0.9 and the “Ca (Component A alone)” value [4, 17] was 2.
`O=c1[nH]sc2ccccc12` [Benzisothiazolin-3-one, reference compound] was tested, and the “MIC … (end point)” value ([1]; contact time 24 hour) was 4 ppm, the “MIC … (end point)” value ([1]; contact time 48 hour) was 7 ppm and the “MIC … (end point)” value ([2]; contact time 3 days) was 43 ppm. For the same molecule, the “MIC … (end point)” value ([2]; contact time 7 days) was 53 ppm, the “MIC … (end point)” value ([3]; contact time 24 hour) was 20 ppm and the “MIC … (end point)” value ([3]; contact time 48 hour) was 20 ppm. For the same molecule, the “MIC … (end point)” value ([4]; contact time 24 hour) was 30 ppm and the “MIC … (end point)” value ([4]; contact time 48 hour) was 30 ppm.
`CCCCNC(=O)OCC#CI` [3-Iodo-2-propynyl butylcarbamate] was tested, and the “Ca (Component A in combination)” value ([1]; 3-Iodo-2-propynyl butylcarbamate combined with Ag-polymer formulation, contact time 24 hour) was 850, the “Ca (Component A in combination)” value ([1]; 3-Iodo-2-propynyl butylcarbamate combined with Ag-polymer formulation, contact time 48 hour) was 1050 and the “Ca (Component A alone)” value [1, 18] was 1050. For the same molecule, the “Ca (Component A alone)” value [1, 19] was 1300, the “Ca (Component A alone)” value ([2]; Table 13, 3-Iodo-2-propynyl butylcarbamate alone, contact time 3 days) was 0.4 and the “Ca (Component A alone)” value ([2]; Table 13, 3-Iodo-2-propynyl butylcarbamate alone, contact time 7 days) was 0.8. For the same molecule, the “Ca (Component A alone)” value [3, 18] was 14 and the “Ca (Component A alone)” value [3, 19] was 14.
